Data from PubChem BioAssay AID493002 (Sanford-Burnham Center for Chemical Genomics, 2010).

What follows are compounds tested on S. cerevisiae tim23-1 mutant growth, luminescence (assay: tim23-1 mutant yeast growth inhibitors, dose response, luminescence, uHTS hits (AID 493002);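 also: yeast grown roughly 22 hours at 25 °C before the luminescence read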).

Question: `COc1ccc(N2CCN(c3nc4cc(C)ccc4cc3C=O)CC2)cc1` was tested. Which IC50 did it give?
Answer: 24.9 µM

Question: With `COc1ccc(O)c(-c2cc(-c3cccs3)[nH]n2)c1` as the compound, how does the IC50 read?
Answer: 12.4 µM

Question: For `Cc1oc2cc(O)cc(O)c2c(=O)c1-c1ccc2c(c1)OCCCO2`, which IC50 is on record?
Answer: 8.84 µM

Question: Which IC50 does the source give for `COc1cc2c3c(c1)C(C)CC(C)(C)N3C(=O)C2=O` (centres undefined) here?
Answer: 27.2 µM

Question: How did the IC50 turn out when `O=C(Nc1ccc(F)c(Cl)c1)C1CC2CCC1C2` (centres undefined) was run?
Answer: 21.6 µM

Question: With `COc1ccc(C(=O)N/N=C/c2ccc(OC)c(COc3ccc(F)cc3F)c2)cc1` as the compound, how does the IC50 read?
Answer: 24.9 µM

Question: Which IC50 does the source give for `c1ccc(N=Nc2cn[nH]c2-c2ccco2)cc1` here?
Answer: 11.3 µM

Question: Which IC50 does the source give for `COc1ccccc1C(=O)Nc1nnc(-c2ccc3c(c2)CCCC3)o1` here?
Answer: 13.8 µM

Question: How did the IC50 turn out when `CCOC(=O)c1c(C=O)c2sc(C)cc2n1C` was run?
Answer: 18 µM

Question: For `Cc1occc1C(=O)N/N=C/C(Br)=C/c1ccccc1`, which IC50 is on record?
Answer: 9.06 µM

Question: How did the IC50 turn out when `CCOC(=O)c1cccnc1SCc1cc(=O)n2ccccc2n1` was run?
Answer: 9.96 µM

Question: `CCCN1C(=O)C(=O)c2cc(Cl)ccc21` was tested. Which IC50 did it give?
Answer: 19.1 µM

Question: Which IC50 does the source give for `O=C(N/N=C/c1coc2ccc(Cl)cc2c1=O)c1ccncc1` here?
Answer: 22.3 µM

Question: Which IC50 does the source give for `COc1ccc(C(=O)N2CCc3ccc(NC(=O)c4ccccn4)cc3C2)cc1F` here?
Answer: 23.8 µM

Question: For `O=C(NC(=S)NC(=O)c1ccccc1F)c1ccccc1F`, which IC50 is on record?
Answer: 6.11 µM

Question: Which IC50 does the source give for `C(=C\c1ccccc1)/C=N/Nc1nc2ccccc2[nH]1` here?
Answer: 8.63 µM

Question: With `CC1CCN(C(=O)c2ccc3c(c2)NC(=O)/C(=C/c2ccccc2)S3)CC1` as the compound, how does the IC50 read?
Answer: 13.6 µM

Question: How did the IC50 turn out when `CCOc1nc2ccccc2cc1C=O` was run?
Answer: 3.43 µM

Question: `Cc1nc2ccc(C(C(F)(F)F)(C(F)(F)F)C(F)(F)F)cc2[nH]1` was tested. Which IC50 did it give?
Answer: 5.02 µM

Question: How did the IC50 turn out when `Cc1cccc(NC(=O)c2cc3ccccc3o2)c1` was run?
Answer: 13 µM

Question: With `Cc1ccc(C(=O)C(C)OC(=O)c2cc3cc([N+](=O)[O-])ccc3oc2=O)cc1` (centres undefined) as the compound, how does the IC50 read?
Answer: 14.9 µM

Question: How did the IC50 turn out when `Cc1occc1C(=O)N/N=C/C(Br)=C\c1ccccc1` was run?
Answer: 13.7 µM

Question: Which IC50 does the source give for `CCOC(=O)NNc1ccc2nonc2c1[N+](=O)[O-]` here?
Answer: 6.6 µM

Question: With `O=Cc1ccccc1OCc1ccc2c(c1)OCO2` as the compound, how does the IC50 read?
Answer: 6.59 µM

Question: `Cc1cc(C)nc(SCC(=O)c2cc3ccccc3oc2=O)n1` was tested. Which IC50 did it give?
Answer: 9.91 µM

Question: `Nc1nc2c(s1)CCc1c-2cnn1-c1ccccc1` was tested. Which IC50 did it give?
Answer: 12.4 µM

Question: Which IC50 does the source give for `O=C(c1ccc(-c2nc3ccccc3s2)s1)N1CCOCC1` here?
Answer: 19.2 µM

Question: For `Oc1ccccc1-c1cc(-c2cccc(F)c2)n[nH]1`, which IC50 is on record?
Answer: 13.2 µM

Question: `O=C(N/N=C/c1ccc(Br)s1)c1cccs1` was tested. Which IC50 did it give?
Answer: 9.05 µM

Question: With `CCCc1nc2c(c(=O)c3ccccc3n2C)c(=O)n1C1CCCCCC1` as the compound, how does the IC50 read?
Answer: 9.44 µM

Question: `COc1ccc(S(=O)(=O)CC(=O)c2cc3cccc(C)c3oc2=O)cc1` was tested. Which IC50 did it give?
Answer: 13 µM

Question: Which IC50 does the source give for `C=CCn1c(SCc2cc(=O)n3ccsc3n2)nc2cc(Cl)ccc2c1=O` here?
Answer: 6.15 µM

Question: For `COc1cc(/C=C/C(=O)OCC(=O)c2ccc(OC(F)F)cc2)ccc1O`, which IC50 is on record?
Answer: 14.6 µM

Question: Which IC50 does the source give for `COc1cccc2sc3cc(NCc4ccc5c(c4)OCO5)ccc3c(=O)c12` here?
Answer: 12.3 µM

Question: `O=C(Nc1nccs1)c1ccc(Cl)s1` was tested. Which IC50 did it give?
Answer: 7.48 µM

Question: How did the IC50 turn out when `O=C(Nc1nc(-c2cccs2)c(-c2ccccc2)s1)c1ccco1` was run?
Answer: 11.5 µM

Question: How did the IC50 turn out when `COc1ccc(Nc2nc(N)c([N+](=O)[O-])c(NC3CCCCC3)n2)cc1` was run?
Answer: 13.6 µM

Question: How did the IC50 turn out when `Cc1ccc(Nc2nc(Cl)nc(NC(C)(C)C)n2)cc1` was run?
Answer: 16 µM

Question: How did the IC50 turn out when `Cc1ccc2c(c1)C(=O)N1[C@H]3c4ccccc4OC[C@@H]3[C@H](c3ccccc3)[C@]1(C)C(=O)N2` was run?
Answer: 4.99 µM

Question: `O=C(N/N=C/c1coc2ccc(Cl)cc2c1=O)c1cc(O)cc(O)c1` was tested. Which IC50 did it give?
Answer: 5.83 µM

Question: Which IC50 does the source give for `Cc1cnc(NC(=O)c2cc3c(s2)CCCC3)s1` here?
Answer: 14.5 µM

Question: For `O=C(Nc1ccc(Cl)cc1)c1cccs1`, which IC50 is on record?
Answer: 11 µM

Question: `Cc1ccc(-c2nc3n(n2)Cc2ccccc2-3)cc1` was tested. Which IC50 did it give?
Answer: 15.4 µM

Question: `CCNc1nc(N)c(C(=O)C23CC4CC(CC(C4)C2)C3)s1` was tested. Which IC50 did it give?
Answer: 12.4 µM

Question: `CCCN(C(=O)c1ccc([N+](=O)[O-])c(C)c1)c1c(N)n(Cc2ccccc2)c(=O)[nH]c1=O` was tested. Which IC50 did it give?
Answer: 5.69 µM

Question: With `COc1cccc(C(=O)Nc2ccccc2)c1` as the compound, how does the IC50 read?
Answer: 9.33 µM

Question: With `Nc1ccc(C(=O)Nc2nc3ccccc3s2)cc1` as the compound, how does the IC50 read?
Answer: 10.4 µM

Question: `CC1CCN(c2ccc(-c3cccs3)nn2)CC1` was tested. Which IC50 did it give?
Answer: 6.21 µM

Question: For `Cc1ccc(NC(=S)NC(=O)C2CC2)cc1Cl`, which IC50 is on record?
Answer: 6.85 µM

Question: For `c1ccc2[nH]c(-c3ccc4c(c3)OCO4)nc2c1`, which IC50 is on record?
Answer: 8.63 µM

Question: How did the IC50 turn out when `OCCCNc1cc(-c2ccccc2)nc2cc(-c3ccc(F)cc3)nn12` was run?
Answer: 33.3 µM

Question: `CCCCn1c(N)c(N(CCC(C)C)C(=O)c2ccc3c(c2)OCO3)c(=O)[nH]c1=O` was tested. Which IC50 did it give?
Answer: 11.1 µM

Question: Which IC50 does the source give for `N#C/C(C(N)=O)=c1/ccc2c(c1)N1C3=C(CCCC3)CC3CCCCC31N=2` (centres undefined) here?
Answer: 7.43 µM

Question: How did the IC50 turn out when `O=C(Nc1nsc(-c2ccccc2)n1)c1cccs1` was run?
Answer: 8.04 µM

Question: Which IC50 does the source give for `O=C(/C=C/c1ccccc1Cl)Nc1ccccc1` here?
Answer: 12.2 µM

Question: With `Cc1ccc(NCc2nc3ccccc3n2CCOc2ccccc2)cc1` as the compound, how does the IC50 read?
Answer: 10.4 µM

Question: With `Cc1[nH][nH]c(=O)c1C(c1ccc(-c2ccc(Cl)c(Cl)c2)o1)c1c(C)[nH][nH]c1=O` as the compound, how does the IC50 read?
Answer: 14 µM

Question: Which IC50 does the source give for `O=C(NCCCc1ccccc1)Nc1cccc(Cl)c1` here?
Answer: 9.3 µM

Question: Which IC50 does the source give for `CSc1nnc(C)c(/C=C/NOCc2ccc(Cl)cc2)n1` here?
Answer: 6.13 µM

Question: Which IC50 does the source give for `Cc1nc(-c2ccc(NC(=O)C3CC3)cc2)cs1` here?
Answer: 20.2 µM

Question: With `O=C(N/N=C/c1ccc2cccnc2c1)c1ccco1` as the compound, how does the IC50 read?
Answer: 18.8 µM

Question: How did the IC50 turn out when `COC(=O)c1cccc(-c2ccc(C(c3c(C)[nH][nH]c3=O)c3c(C)[nH][nH]c3=O)o2)c1` was run?
Answer: 15.1 µM

Question: `Nc1ccc2nc(SCc3ccccc3F)sc2c1` was tested. Which IC50 did it give?
Answer: 7.18 µM

Question: For `O=C1NC(=S)SC1=C1CCCCCC1`, which IC50 is on record?
Answer: 7.78 µM

Question: Which IC50 does the source give for `COc1ccc(C(=O)N/N=C\c2coc3ccc(Cl)cc3c2=O)cc1` here?
Answer: 8.27 µM

Question: For `Cn1cc(C(=O)c2ccc(Cl)cc2)cc1-c1nc2ccccc2n1C`, which IC50 is on record?
Answer: 12.3 µM

Question: How did the IC50 turn out when `Cc1cccc(OCCN2C(=O)C(=O)c3cc(C)ccc32)c1` was run?
Answer: 9.52 µM

Question: How did the IC50 turn out when `O=C(Nc1ccn(Cc2ccc(Cl)cc2)n1)c1ccc2c(c1)OCO2` was run?
Answer: 11.1 µM

Question: With `O=C(NCc1cccnc1)/C(=C\c1ccc(-c2ccc(Br)cc2)o1)S(=O)(=O)c1ccccc1` as the compound, how does the IC50 read?
Answer: 4.25 µM

Question: `CCn1c(N2CCN(S(=O)(=O)c3ccc(OC)cc3)CC2)nc2ccccc21` was tested. Which IC50 did it give?
Answer: 8.88 µM

Question: For `O=C(COC(=O)CC1CCCC1)Nc1ccc(Cl)cc1`, which IC50 is on record?
Answer: 13.2 µM

Question: How did the IC50 turn out when `O=C(c1cc(-c2ccc(O)cc2)on1)N1CCc2ccccc2C1` was run?
Answer: 8.85 µM

Question: How did the IC50 turn out when `CC(C)n1cc(NC(=O)c2cc(-c3ccccc3)on2)cn1` was run?
Answer: 7.69 µM

Question: With `C=CCN=c1scc(-c2ccco2)n1/N=C/c1ccc(O)c(O)c1O` as the compound, how does the IC50 read?
Answer: 16.1 µM

Question: With `O=CN(/C=C1\Sc2ccccc2C1=O)Cc1ccccc1` as the compound, how does the IC50 read?
Answer: 7.02 µM

Question: For `Cc1nc2ccccc2c(=O)n1/N=C/c1cc(Br)ccc1O`, which IC50 is on record?
Answer: 6.9 µM

Question: With `COCCn1c(C)cc(C(=O)COC(=O)c2ccc([N+](=O)[O-])o2)c1C` as the compound, how does the IC50 read?
Answer: 6.98 µM

Question: How did the IC50 turn out when `O=C(Nc1nc2c(F)cccc2s1)c1ccco1` was run?
Answer: 16.7 µM

Question: For `c1ccc(Nc2nc(-c3ccccc3)nc3ccccc23)cc1`, which IC50 is on record?
Answer: 5.08 µM

Question: With `COc1ccc(/C=C/C(=O)Nc2ccc3c(c2)CCC3)cc1OC` as the compound, how does the IC50 read?
Answer: 8.81 µM

Question: With `C/C(=N\Nc1cc(N2CCCCC2)nc(C)n1)c1ccc(Br)cc1` as the compound, how does the IC50 read?
Answer: 14.2 µM

Question: With `O=C(NC(=O)c1ccccc1F)OCc1ccc(Cl)cc1Cl` as the compound, how does the IC50 read?
Answer: 11.9 µM

Question: For `O=C(CC(=O)c1cc(Cl)ccc1O)c1ccccc1`, which IC50 is on record?
Answer: 7.07 µM

Question: With `COc1cccc2c1C(=O)C=C(C)C2=O` as the compound, how does the IC50 read?
Answer: 5.32 µM

Question: `CCOC(=O)Nc1cccc(NC(=O)c2ccccc2F)c1` was tested. Which IC50 did it give?
Answer: 13.3 µM

Question: For `Cc1ccc2occ(C(=O)c3ccco3)c(=O)c2c1`, which IC50 is on record?
Answer: 9.16 µM

Question: For `Cc1nc2ccccc2n1/N=C/c1ccc([N+](=O)[O-])s1`, which IC50 is on record?
Answer: 1.58 µM

Question: Which IC50 does the source give for `c1ccc(-n2nc3c(ccc4cnnc43)[nH]2)cc1` here?
Answer: 24.5 µM

Question: Which IC50 does the source give for `N#C/C(=C\c1c[nH]c2ccccc12)C(=O)NC1CCCC1` here?
Answer: 31.5 µM
